Experiments:
Format in all cases: physicochemical
[1] = Resilience to harsh oxidation: free dye with benzoyl peroxide, fluorescence decay; conditions: about 1 μM free dye in Tris-EDTA buffer/MeOH, 5 μl 0.5M benzoyl peroxide in acetonitrile per 1 ml, read at 5 minute intervals, compared with ROX
Experimental: Regarding chemical stability, DDAO congeners appear to have resilience under various conditions, such as oxidation, photo-degradation, and the like. For example, regarding resilience to harsh oxidation, DDAO, Sulfo-DDAO, and ROX were each suspended as free dyes in a solution of 1.4 of Tris-EDTA buffer (1× stock concentration) in MeOH at a concentration of approximately 1 μM. Five μl of 0.5M benzoyl peroxide in acetonitrile was added to 1 ml of the dye composition in a fluorimeter cuvette. Fluorescence emission intensity was measured at each dye's emission maximum immediately, and then at 5 minute intervals. A first-order exponential curve was fit to the data to calculate the decay rate for each dye. FIG. 7 is a graph showing the results of that experiment. […] As such, the reference dyes of formula (I) can be used in assays in which the assay components might come in contact with oxidants.

[2] = Stability of reference dye incubated in TaqMan Universal PCR Master Mix, judged by Ct values; conditions: room temperature in TaqMan Universal PCR Master Mix, 1 day to 4 weeks; consistent Ct values
Experimental: FIG. 11 depicts the stability of Sulfo-DDAO in a master mix, and incubated with various additional additives. Sulfo-DDAO was incubated in TaqMan® Universal PCR Master Mix at room temperature for 1 day, 1 week, 2 weeks, or 4 weeks. At each designated time point, fixed quantities of various, different target polynucleotides and various dye-labeled TaqMan® probes, were added. The target/probe mixtures were PCR amplified in a 96 well plate and the signals recorded after each amplification cycle to generate an amplification count from which a Ct value was determined for each target/probe mixture, using Sulfo-DDAO as a reference dye. FIG. 11 is a graph showing the results of that experiment, with the Ct values plotted for each time point. The Sulfo-DDAO signal was stable at room temperature in TaqMan® Universal PCR Master Mix for up to 4 weeks, as evidenced by the consistent Ct values obtained at different incubation times for the different target/probe mixtures, using Sulfa-DDAO as a reference dye.

[3] = Normalized fluorescent emission as a function of temperature; conditions: signals normalized to the 94° C. data point; compared with 6-FAM and ROX
Experimental: FIG. 6 depicts a graph of normalized fluorescent emission as a traction of temperature for Sulfo-DDAO in comparison to a reporter dye, 6-FAM, as well as a reference dye, ROX. Given the difference in brightness of the dyes shown, each data point for each curve was adjusted using an internal reference point taken from the 94° C. data point for that data set. In that regard, the fluorescence signals are normalized to give equal intensities at 94 C so that their relative changes with temperature can be easily compared. […] This attribute may be useful when, for example, dye calibration they be one at a different temperature from a run temperature, or could be useful for normalizing experimental variations as previously discussed.

| SMILES | resilience to oxidation (fluorescence emission decay) [1] | stability of reference dye signal in master mix [2] | stability of fluorescence emission across temperature [3] |
| --- | --- | --- | --- |
| CC1(C)C2=C(Cl)C(=O)C(Cl)=CC2=Nc2ccc(O)cc21 [DDAO, 1,3-dichloro-7-hydroxy-9,9-dimethylacridin-2(9H)-one] | show resilience to oxidation |  |  |
| CC1(C)C2=C(Cl)C(=O)C(Cl)=CC2=Nc2cc(S(=O)(=O)O)c(O)cc21 [Sulfo-DDAO, 6,8-dichloro-2-hydroxy-9,9-dimethyl-7-oxo-7,9-dihydroacridine-3-sulfonic acid] | show resilience to oxidation | stable | fairly stable |

Source: US9315859B2, “DDAO compounds as fluorescent reference standards” (LIFE TECHNOLOGIES CORPORATION, priority 2010, dated 2016)
